Drawing on a melting point compilation (Tetko et al.; mined from patent text by program, amines drawn as free bases though some values may be those of a salt), this text covers melting point for 87 molecules.

Molecules are shown by their SMILES.

With `CN(C)C=Nc1n[nH]c2ncnc(Nc3cccc(Cl)c3)c12`, the melting point is 243 to 245 °C.

Regarding `C#CCOc1cc(Oc2ccc(OC)cc2)ncn1`, the melting point was 72 °C.

With `Cn1c(OC2CCOC2)nn(C(=O)Oc2ccccc2)c1=O` (configuration not stated), the melting point worked out at 98 °C.

With `Cc1nc(-c2cc3cc(OCCNC[C@H](O)COc4ccccc4Cl)ccc3o2)no1`, the melting point was 106 to 108 °C.

As for `CCOC(=O)c1cnn(-c2ccccc2)c1Br`, the melting point was 86 to 89 °C.

`CCC1(CC)CN(C(C)(C)C)C(=O)C(C)(CC)N1OC(C)c1ccccc1` (configuration not stated) came in with a melting point of 76 to 79 °C.

Regarding `O[C@H]1[C@H](O)CS[C@H]1n1cnc2c(Cl)ncnc21`, the melting point is 192 to 193 °C.

For the molecule `COc1cc(/C=C/C=C/C(=O)NCCCC2CNCCC2c2c[nH]c3ccccc23)cc(OC)c1O` (configuration not stated), the melting point is 176 to 179 °C.

In turn, `CC(C)c1ccccc1Sc1c(O)cc(-c2ccc(OCc3ccccc3)cc2)oc1=O` showed a melting point of 163 to 165 °C.

Regarding `CCCCc1noc(-c2ncn3c2[C@@H]2CCCN2C(=O)c2c(Cl)cccc2-3)n1`, the melting point was in the range of 181 to 182 °C.

In the case of `Nc1ccc(Oc2ccc(P(=O)(c3ccccc3)c3ccccc3)c(Oc3ccc(N)cc3)c2)cc1`, the melting point was in the range of 272 to 275 °C.

For `O=C(CCc1ccccc1)N[C@H](Cc1ccc(C(F)(F)F)cc1)[C@@H](O)c1ccc(Oc2ccccc2)cc1` (racemic), the melting point was 133 to 134 °C.

The molecule `O=c1[nH]c2ccccc2c(=O)c(Cc2ccccc2)c1O` registered a melting point of 199 to 200 °C.

Molecule `COc1cc2c(cc1OCc1ccccc1)CCN(C(=O)c1ccccc1OC)C2=O` returned a melting point of 163 to 164 °C.

For the molecule `COC(=O)c1ccc(C2=NOC(c3cc(Cl)cc(Cl)c3)(C(F)(F)F)C2)c2ccccc12` (configuration not stated), the melting point lay within 137 to 138 °C.

In the case of `Cc1nc(C(O)c2ccc(Cl)cc2)sc1C` (configuration not stated), the melting point is 107 °C.

Turning to `Cc1ccc(C(O)C2OC2C(C)(C)C)cc1` (configuration not stated), the melting point was 36 to 39 °C.

`CCc1nc2c(cnn2CC)c(NC2CCOCC2)c1CNC(=O)c1cccc(C(=O)O)c1` registered a melting point of 207 to 209 °C.

Take `CCCCc1ncc(CC(Cc2ccccc2)C(=O)O)n1Cc1ccccc1` (configuration not stated): the melting point lay within 148 to 150 °C.

Regarding `Cc1nc(-c2ccccc2)nc(-c2cccc([N+](=O)[O-])c2)c1C(=O)OCCO`, the melting point lay within 84 to 86 °C.

Turning to `COc1ccc(CCNCC(O)C(=O)O)cc1OC` (configuration not stated), the melting point is 188 °C.

Take `Cc1cc(-n2ccnc2)c2cccc(OCc3c(Cl)ccc(S(=O)(=O)N4CCC[C@H]4C(=O)NCC4CCN(CCCC(=O)O)CC4)c3Cl)c2n1`: the melting point was found to be 178 °C.

In turn, `CCc1nc2c(C)cc(C)nc2n1Cc1ccc(C(=O)c2ccccc2)cc1` yielded a melting point of 98 °C.

In turn, `CC(C)c1cccc(-c2ccc(C(=O)NO)nc2)c1` gave a melting point of 130 to 135 °C.

In the case of `CC(C)(C)OC(=O)N[C@@H](CCC(=O)Oc1ccc(-c2nn(C3CCCC3)c3c(F)cccc23)cc1)C(=O)OC(C)(C)C`, the melting point lay within 92 to 93 °C.

`Cc1nnc(C2CN3CCC2CC3)o1` (configuration not stated): the melting point was in the range of 147 to 148 °C.

As to `CC1=C2C(Br)CC3C4CCCC4(C)CCC3C2(C)CCC1=O` (configuration not stated), the melting point lay in the range of 124 to 125 °C.

Molecule `CCN1Cn2c(=O)cc(-c3cccc(C(F)(F)F)c3)n3cnc(c23)C1=O` returned a melting point of 278 to 280 °C.

Take `CC(C)(C)OC(=O)c1ncn2c1[C@@H]1CCCN1C(=O)c1sccc1-2`: the melting point was 226 to 227 °C.

For `COCc1cc2c([N+](=O)[O-])cccc2cn1`, the melting point stood at 91 °C.

`C#CCSc1nc(-c2ccccc2)no1` came in with a melting point of 39.4 °C.

`CC(C)c1cc(C(=O)O)sc1C(C)C` returned a melting point of 149 to 151 °C.

In the case of `O=c1c(Br)c(OCc2ccccc2)ccn1Cc1ccc(OCc2ccccc2)cc1`, the melting point was 138 to 144 °C.

Molecule `Cc1ccc(Nc2nnc(Cc3ccncc3)c3ccccc23)cc1C` came in with a melting point of 180 to 181 °C.

In turn, `O=C(SCCC(=O)N1c2ccccc2CC1C(=O)O)c1ccccc1` (configuration not stated) showed a melting point of 173 to 175 °C.

For the molecule `CC(=O)CCCCOCCCc1ccc(N2CCCC2)cc1`, the melting point was 30 to 31 °C.

The molecule `COc1ccc(CCNC(=O)C(N)=O)cc1OC1CCCC1` came in with a melting point of 175 to 176 °C.

Take `Cc1c(C(F)(F)F)nn(C)c1O`: the melting point is 148 to 151 °C.

As to `Fc1ccc(CNc2nc(OCC(F)(F)F)nc(Oc3cccc(C(F)(F)F)c3)n2)cc1`, the melting point is 107 to 109 °C.

`CN(C)C=C1N=C(c2ccccc2Cl)c2cc(Cl)ccc2N(C)C1=O` showed a melting point of 199 to 200 °C.

Molecule `COC(=O)c1ccc(NS(=O)(=O)c2sc3ccc(F)cc3c2C)c(S(C)(=O)=O)c1` gave a melting point of 202 to 204 °C.

`CCN1c2ncc(CCc3cncnc3)cc2C(=O)N(C)c2cccnc21` came in with a melting point of 142 to 143 °C.

Molecule `CC(C)(C)c1cc(SCc2nc3cccnc3[nH]2)cc(C(C)(C)C)c1O` came in with a melting point of 241 to 242 °C.

Molecule `CCOC(=O)c1nccn1Cc1ccc(Cl)cc1[N+](=O)[O-]` yielded a melting point of 105 to 107 °C.

In turn, `Cc1ccc(-c2ccc(C(=O)N3Cc4cccn4Cc4ccccc43)cc2)c2ccccc12` displayed a melting point of 160 to 162 °C.

Turning to `COC(=O)Nc1nc2cc(C(c3cccc(Cl)c3)n3ccnc3)ccc2[nH]1` (configuration not stated), the melting point came to 168 °C.

`CC(SC1COC(c2ccc(C(=O)Nc3ccc(F)cc3)cc2)OC1)C(O)(Cn1cncn1)c1ccc(F)cc1F` (configuration not stated) yielded a melting point of 104 °C.

In turn, `Cc1cc(-n2ccnc2)c2cccc(OCc3c(Cl)ccc(S(=O)(=O)N4CCC[C@H]4C(=O)N(C)CCCN(C)CCCCO)c3Cl)c2n1` returned a melting point of 82 °C.

Regarding `COc1ccc2nc(C)cc(Oc3cc(-c4ccc(C(F)(F)F)cc4)ncn3)c2c1`, the melting point was 165 to 166 °C.

Regarding `COc1ccc(CCNC(=O)C(=O)NCc2ccc([N+](=O)[O-])cc2)cc1OC1CCCC1`, the melting point was in the range of 148 to 150 °C.

`CN(C)c1ccc2c(c1)CN1C(=Nc3cccnc3)SC[C@@H]1C2` showed a melting point of 138 °C.

`Cc1cc(F)cc([N+](=O)[O-])c1N` came in with a melting point of 111 to 113 °C.

`COc1ccc(C(=O)Nc2ccccc2)cc1Nc1cccc(Cl)c1` registered a melting point of 168 to 170 °C.

On to `O=Cc1c(O)cccc1OCc1ccc(-c2nnn[nH]2)cc1`, for which the melting point was 206 °C.

In the case of `CC(=NO)c1ccc(N2CCN(C(=O)CCCCCCC(=O)NO)CC2)cc1`, the melting point was in the range of 147 to 148 °C.

For the molecule `CCCC12CCC(=O)C=C1c1c(cc(CC(=O)O)c(Cl)c1Cl)O2` (configuration not stated), the melting point is 248 to 250 °C.

In turn, `Cc1c(-c2ccc(OC(C)C)cc2)n(Cc2ccc(OCCO)cc2)c2ccc(OCc3ccccc3)cc12` gave a melting point of 129 to 131 °C.

The molecule `CCCc1c(OCCCCCOc2cccc(NC(=O)C(=O)O)c2)ccc(C(C)=O)c1O` showed a melting point of 117 to 118 °C.

`COc1cccc(S(=O)(=O)N2c3cc(F)ccc3-c3ccc(F)cc3C2C)c1` (configuration not stated): the melting point lay in the range of 147 to 149 °C.

In turn, `O=C(O)C(Sc1nc2ccc(Cl)nc2s1)c1ccc(Cl)cc1` (configuration not stated) returned a melting point of 144 to 146 °C.

`O=C(c1cccs1)c1cnn2c(-c3ccc(F)c(N(C(=O)c4ccccc4Cl)C(=O)c4ccccc4Cl)c3)ccnc12`: the melting point was 150 to 151 °C.

In turn, `CCCCCCCCCCCC(=O)OCn1cc(F)c(=O)[nH]c1=O` gave a melting point of 114 °C.

With `CCN1C(=O)C(C(=O)Nc2ccc(F)cc2F)c2cc(C3(C)OCCO3)ccc21` (configuration not stated), the melting point was in the range of 166 to 170 °C.

In turn, `CN1C(=O)C(F)ON=C(c2ccccc2)c2cc(Cl)ccc21` (configuration not stated) gave a melting point of 218 to 220 °C.

In the case of `O=C1Nc2ccc(-c3cc(F)cc(Br)c3)cc2C(C2CC2)(C2CC2)O1`, the melting point lay in the range of 228 to 229 °C.

As for `C=Cc1ccc2c(c1CCC(=O)OC)CCC(NS(=O)(=O)c1ccc(Cl)cc1)C2` (configuration not stated), the melting point came out at 138 °C.

`O=S(CSc1ccc(Cl)cc1)c1ccccc1` (configuration not stated): the melting point was in the range of 70 to 71 °C.

On to `Cc1cc(C(=O)NCc2ccc(Br)cc2F)c(O)cc1F`, for which the melting point lay within 149 to 150 °C.

As for `CN1C(=O)NC(=O)C1=Cc1cc(OCCCS(=O)(=O)c2ccccc2)ccc1[N+](=O)[O-]`, the melting point lay in the range of 147 to 158 °C.

`Cc1cccc(-c2n[nH]cc2-c2ccnc(-c3ccc(Cl)cc3)c2)n1` gave a melting point of 190 °C.

Turning to `CC(C)(C)CC(=O)Nc1ccc([N+](=O)[O-])cc1`, the melting point fell in the range of 192 to 194 °C.

Molecule `O=C(N[C@H]1CCCNC1=O)c1ccc(F)c(F)c1` displayed a melting point of 202 to 204 °C.

Turning to `CCCSc1ncc(C(C)C(=O)O)n1Cc1ccccc1Cl` (configuration not stated), the melting point lay within 170 to 172 °C.

Regarding `CC=CCN1CCNC1=C[N+](=O)[O-]`, the melting point was in the range of 82 to 85 °C.

Molecule `CCCCCCCCCCCCCC[C@]1(C)OO[C@@H]2C[C@H]1CC(=O)[C@@H]2C` yielded a melting point of 46 °C.

With `O=C(CCCl)N(O)c1ccccc1`, the melting point fell in the range of 87 to 88 °C.

For `CCCCCCCCCCCCCCCCSC1OC(C)C(OC(C)=O)C(OC(C)=O)C1OC(C)=O` (configuration not stated), the melting point was in the range of 49 to 50 °C.

Regarding `CCC(C)C(NC(=O)OC)C(=O)NN(Cc1ccc(-c2nccs2)cc1)CC(O)C(Cc1ccccc1)NC(=O)C(NC(=O)OC)C(C)C` (configuration not stated), the melting point was 227 to 229 °C.

In turn, `CN1CCN(C2CCC(Nc3ncc4ncnc(Nc5ccc(F)c(Cl)c5)c4n3)CC2)CC1` (configuration not stated) came in with a melting point of 194 to 196 °C.

The molecule `CS(=O)(=O)c1ccc(C2=C(c3ccc(F)cc3)CC3(CCC3)C2)cc1` registered a melting point of 123 to 124 °C.

Take `CCOc1ccc(-n2c(C(F)(F)F)nn(C)c2=S)cc1`: the melting point fell in the range of 93 to 95 °C.

On to `COc1cc2cccc3c2c(n1)-c1ccccc1C3=O`, for which the melting point lay within 190 to 192 °C.

`CCSc1cc(C)nc(SCC)c1NC(=O)CCCCCCCCSc1nc2ccccc2o1` showed a melting point of 84 to 87 °C.

As for `CC(C)N1CCN(C(=O)c2cc(N)cc(C(F)(F)F)c2)CC1`, the melting point lay in the range of 89 to 90 °C.

`Cc1nc(-c2ccc(NC(=O)CCCC(=O)Nc3ccc(-c4noc(C)n4)cc3)cc2)no1` yielded a melting point of 235 to 237 °C.

`N#Cc1ccn2c1CSC2c1cccnc1` (configuration not stated) returned a melting point of 110 °C.

Turning to `Cc1ccc(C2CC(=O)c3ccccc3N2)cc1` (configuration not stated), the melting point was 144 to 146 °C.
